Results from the C3SDB collision cross section collection.

What was measured:
[1] = instrument: TW, calibrated with phosphatidylcholines (ESI+) and phosphatidylethanolamines (ESI-), doubly charged cardiolipins calibrated with poly-DL-…
[2] = instrument: DT, stepped-field
[3] = [M+H]+; instrument: TW

collision cross section (N2) ([1]; [M+H]+) | collision cross section (N2) ([1]; [M-H]-) | Structure (SMILES) | further results
280.06 Å² | 270.25 Å² | CCCCCCCC/C=C\CCCCCCCC(=O)OC(COC(=O)CCCCCCCCCCCCCCCCC)COP(=O)(O)OCCN (stereo not drawn) [PE(36:1)] | 
 | 261.31 Å² | CCCCCC/C=C\CCCCCCCC(=O)OCC(COP(=O)(O)OCC(O)CO)OC(=O)CCCCCCC/C=C\CCCCCC (stereo not drawn) [PG(32:2)] | collision cross section (N2) ([1]; [M+Na]+): 272.38 Å²
 | 266.36 Å² | CCCCCCCCCCCCCCCC(=O)OCC(COP(=O)(O)OCC(O)CO)OC(=O)CCCCCCCC1CC1CCCCCC (stereo not drawn) [PG(33:1)] | collision cross section (N2) ([1]; [M+Na]+): 280.56 Å²

More lines, now with the values behind:

Structure (SMILES) | collision cross section (N2) ([1]; [M+H]+) | collision cross section (N2) ([1]; [M-H]-) | further results
CCCCCCCCCCCCCCC(=O)OC[C@@H](O)COP(=O)([O-])OCC[NH3+] [LPE(15:0/0:0)] | 209.91 Å² | 202.83 Å² | collision cross section (N2) ([1]; [M+Na]+): 216.13 Å²
CCCCCCCCCCCCCCCC(=O)OC[C@@H](O)COP(=O)([O-])OCC[NH3+] [LPE(16:0/0:0)] | 213.91 Å² | 206.89 Å² | collision cross section (N2) ([1]; [M+Na]+): 220.01 Å²
CCCCCCC1CC1CCCCCCCC(=O)OC[C@@H](O)COP(=O)([O-])OCC[NH3+] (stereo partly drawn) [LPE(17:1/0:0)] | 212.27 Å² | 208.15 Å² | collision cross section (N2) ([1]; [M+Na]+): 219.72 Å²
CCCCCC/C=C/CCCCCCCC(=O)OC[C@@H](O)COP(=O)(O)OCC(O)CO (stereo partly drawn) [LPG(16:1)] |  | 210.68 Å² | 
CCCCCCCCC1CC1CCCCCCCC(=O)O[C@H](CO)COP(=O)(O)OCC(O)CO (stereo partly drawn) [LPG(19:1)] |  | 220.89 Å² | 
CCc1cccc(C)c1N(C(=O)CCl)C(C)COC (stereo not drawn) [Metolachlor] |  |  | collision cross section (N2) ([2]; [M+H]+): 161.46 Å²; collision cross section (N2) ([2]; [M+Na]+): 175.84 Å²; collision cross section (N2) [3]: 158.23 Å²
CSc1nnc(C(C)(C)C)c(=O)n1N [Metribuzin] |  |  | collision cross section (N2) ([2]; [M+H]+): 150.5 Å²; collision cross section (N2) ([2]; [M+Na]+): 171.27 Å²; collision cross section (N2) [3]: 146.95 Å²
CCCCCC/C=C\CCCCCCCC(=O)OCC(COP(=O)(O)O)OC(=O)CCCCCCCCCCCCCCC (stereo not drawn) [PA(32:1)] |  | 249.02 Å² | 
CCCCCCCC/C=C\CCCCCCCC(=O)OC(COC(=O)CCCCCCCCCCCCCCC)COP(=O)(O)O (stereo not drawn) [PA(34:1)] |  | 255.63 Å² | 
CCCCCC/C=C\CCCCCCCC(=O)OCC(COP(=O)(O)O)OC(=O)CCCCCCC/C=C\CCCCCCCC (stereo not drawn) [PA(34:2)] |  | 253.68 Å² | 
CCCCCCCC/C=C\CCCCCCCC(=O)OCC(COP(=O)(O)O)OC(=O)CCCCCCC/C=C\CCCCCCCC (stereo not drawn) [PA(36:2)] |  | 259.86 Å² | 
CCCCCCCCCCCCCCCC(=O)OCC(COP(=O)(O)OCCN)OC(=O)CCCCCCCC1CC1CCCC (stereo not drawn) [PE(31:1)] | 265.08 Å² | 252.34 Å² | 
CCCCCCCCCCCCCCCC(=O)OCC(COP(=O)(O)OCCN)OC(=O)CCCCCCCCCCCCCCC (stereo not drawn) [PE(32:0)] | 272.49 Å² | 257.29 Å² | 
CCCCCC/C=C\CCCCCCCC(=O)OCC(COP(=O)(O)OCCN)OC(=O)CCCCCCCC1CC1CCCCCCCC (stereo not drawn) [PE(35:2)] | 275.82 Å² | 265.69 Å² | 
CCCCCC/C=C\CCCCCCCC(=O)OCC(COP(=O)(O)OCC(O)CO)OC(=O)CCCCCCCCCCCCC (stereo not drawn) [PG(30:1)] |  |  | collision cross section (N2) ([1]; [M+Na]+): 268.07 Å²
FC(F)C(F)(F)OCC(Cn1cncn1)c1ccc(Cl)cc1Cl (stereo not drawn) [Tetraconazole] |  |  | collision cross section (N2) [3]: 174.34 Å²
C=C[C@]1(C)C[C@@H](OC(=O)CSCCN(CC)CC)C2(C)C(C)CC[C@]3(CCC(=O)[C@@H]23)[C@@H](C)[C@@H]1O (stereo partly drawn) [Tiamulin] |  |  | collision cross section (N2) [3]: 218.9 Å²
CCOC(=O)C1CC(=O)C(=C(O)C2CC2)C(=O)C1 (stereo not drawn) [Trinexapac-ethyl] |  |  | collision cross section (N2) [3]: 152.92 Å²
C=C[C@]1(C)C[C@@H](OC(=O)CSC(C)(C)CNC(=O)[C@H](N)C(C)C)[C@]2(C)[C@H](C)CC[C@]3(CCC(=O)[C@H]32)[C@@H](C)[C@@H]1O [Valnemulin] |  |  | collision cross section (N2) [3]: 233.3 Å²
